ChEMBL document CHEMBL1201862, “PubChem BioAssay data set” (2004)
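Each compound was tested at five concentrations against cells in 96-well plates for 48 hours. GI50 = concentration required for 50% inhibition of growth.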 Active and inactive are the calls of the source. No stated cut-off is given here; in the data, active = GI50 up to about 1.1 µM and inactive = higher.

How the values were obtained:
Assay in all cases: growth of human tumour cells (NCI), 48 h
SK-MEL-5 = test system: SK-MEL-5
MDA-MB-435 = test system: MDA-MB-435
NCI-H522 = test system: NCI-H522
M14 = test system: M14
MCF7 = test system: MCF7
SR = test system: SR
Hs-578T = test system: Hs-578T
MOLT-4 = test system: MOLT-4
SF-295 = test system: SF-295
A498 = test system: A498
UO-31 = test system: UO-31
KM12 = test system: KM12
Malme-3M = test system: Malme-3M
EKVX = test system: EKVX
HCT-15 = test system: HCT-15
ACHN = test system: ACHN
PC-3 = test system: PC-3
SNB-19 = test system: SNB-19
CCRF-CEM = test system: CCRF-CEM
HOP-62 = test system: HOP-62
SK-OV-3 = test system: SK-OV-3
NCI-H226 = test system: NCI-H226
NCI-H460 = test system: NCI-H460
UACC-62 = test system: UACC-62
RPMI-8226 = test system: RPMI-8226
SN12C = test system: SN12C
SW-620 = test system: SW-620
HT-29 = test system: HT-29
OVCAR-3 = test system: OVCAR-3
CAKI-1 = test system: CAKI-1
SF-539 = test system: SF-539
TK-10 = test system: TK-10
OVCAR-8 = test system: OVCAR-8
HCT-116 = test system: HCT-116
A549 = test system: A549
OVCAR-4 = test system: OVCAR-4
BT-549 = test system: BT-549
T47D = test system: T47D
LOX IMVI = test system: LOX IMVI
OVCAR-5 = test system: OVCAR-5
786-0 = test system: 786-0
NCI-H23 = test system: NCI-H23
DU-145 = test system: DU-145
COLO 205 = test system: COLO 205
U-251 = test system: U-251
K562 = test system: K562
HOP-92 = test system: HOP-92
UACC-257 = test system: UACC-257
MDA-N = test system: MDA-N
SK-MEL-28 = test system: SK-MEL-28
RXF 393 = test system: RXF 393
MDA-MB-231 = test system: MDA-MB-231
HL-60 = test system: HL-60
SK-MEL-2 = test system: SK-MEL-2
SF-268 = test system: SF-268
IGROV-1 = test system: IGROV-1
NCI/ADR-RES = test system: NCI/ADR-RES
HCC 2998 = test system: HCC 2998
SNB-75 = test system: SNB-75

O=C(O)C(F)(OC(F)(F)C(F)(OC(F)(F)C(F)(F)C(F)(F)F)C(F)(F)F)C(F)(F)F (configuration not stated)
GI50 (SK-MEL-5): > 100 µM (inactive) | GI50 (MDA-MB-435): > 100 µM (inactive) | GI50 (NCI-H522): > 100 µM (inactive) | GI50 (M14): > 100 µM (inactive) | GI50 (MCF7): > 100 µM (inactive) | GI50 (SR): > 100 µM (inactive) | GI50 (Hs-578T): > 100 µM (inactive) | GI50 (MOLT-4): > 100 µM (inactive) | GI50 (SF-295): > 100 µM (inactive) | GI50 (A498): > 100 µM (inactive) | GI50 (UO-31): > 100 µM (inactive) | GI50 (KM12): > 100 µM (inactive) | GI50 (Malme-3M): > 100 µM (inactive) | GI50 (EKVX): > 100 µM (inactive) | GI50 (HCT-15): > 100 µM | GI50 (ACHN): > 100 µM (inactive) | GI50 (PC-3): 59.7 µM (inactive) | GI50 (SNB-19): > 100 µM (inactive) | GI50 (CCRF-CEM): > 100 µM (inactive) | GI50 (HOP-62): > 100 µM (inactive) | GI50 (SK-OV-3): > 100 µM (inactive) | GI50 (NCI-H226): > 100 µM (inactive) | GI50 (NCI-H460): > 100 µM (inactive) | GI50 (UACC-62): > 100 µM (inactive) | GI50 (RPMI-8226): > 100 µM (inactive) | GI50 (SN12C): 78.5 µM (inactive) | GI50 (SW-620): > 100 µM (inactive) | GI50 (HT-29): > 100 µM (inactive) | GI50 (OVCAR-3): > 100 µM (inactive) | GI50 (CAKI-1): > 100 µM (inactive) | GI50 (SF-539): > 100 µM (inactive) | GI50 (TK-10): > 100 µM (inactive) | GI50 (OVCAR-8): > 100 µM (inactive) | GI50 (HCT-116): > 100 µM (inactive) | GI50 (A549): > 100 µM (inactive) | GI50 (OVCAR-4): > 100 µM (inactive) | GI50 (BT-549): > 100 µM (inactive) | GI50 (T47D): > 100 µM (inactive) | GI50 (LOX IMVI): > 100 µM (inactive) | GI50 (OVCAR-5): > 100 µM (inactive) | GI50 (786-0): > 100 µM (inactive) | GI50 (NCI-H23): > 100 µM (inactive) | GI50 (DU-145): > 100 µM (inactive) | GI50 (COLO 205): > 100 µM (inactive) | GI50 (U-251): > 100 µM (inactive) | GI50 (K562): > 100 µM (inactive) | GI50 (HOP-92): 63.7 µM (inactive) | GI50 (UACC-257): > 100 µM (inactive) | GI50 (MDA-N): > 100 µM (inactive) | GI50 (SK-MEL-28): > 100 µM (inactive) | GI50 (RXF 393): > 100 µM (inactive) | GI50 (MDA-MB-231): > 100 µM (inactive) | GI50 (HL-60): > 100 µM (inactive) | GI50 (SK-MEL-2): > 100 µM (inactive) | GI50 (SF-268): > 100 µM (inactive) | GI50 (IGROV-1): > 100 µM (inactive) | GI50 (NCI/ADR-RES): > 100 µM (inactive) | GI50 (HCC 2998): > 100 µM (inactive) | GI50 (SNB-75): > 100 µM (inactive)

O=[N+]([O-])c1c(F)c(F)c2c(c1F)N(CCCCCl)c1ccccc1S2
GI50 (SK-MEL-5): 12.2 µM (inactive) | GI50 (MDA-MB-435): 7.71 µM (inactive) | GI50 (NCI-H522): 4.9 µM (inactive) | GI50 (M14): 4.83 µM (inactive) | GI50 (MCF7): 3.61 µM (inactive) | GI50 (SR): 1.89 µM (inactive) | GI50 (Hs-578T): 24.8 µM (inactive) | GI50 (MOLT-4): 2.77 µM (inactive) | GI50 (SF-295): 16.6 µM (inactive) | GI50 (A498): 8.81 µM (inactive) | GI50 (UO-31): 16.9 µM (inactive) | GI50 (KM12): 10.5 µM (inactive) | GI50 (Malme-3M): 16.6 µM (inactive) | GI50 (EKVX): 21.7 µM (inactive) | GI50 (HCT-15): 1.6 µM | GI50 (ACHN): 16.5 µM (inactive) | GI50 (PC-3): 6.05 µM (inactive) | GI50 (SNB-19): 7.69 µM (inactive) | GI50 (CCRF-CEM): 2.38 µM (inactive) | GI50 (HOP-62): 14.3 µM (inactive) | GI50 (SK-OV-3): 19.7 µM (inactive) | GI50 (NCI-H226): 17.7 µM (inactive) | GI50 (NCI-H460): 5.01 µM (inactive) | GI50 (UACC-62): 13.9 µM (inactive) | GI50 (RPMI-8226): 3.47 µM (inactive) | GI50 (SN12C): 7.5 µM (inactive) | GI50 (SW-620): 4.05 µM (inactive) | GI50 (HT-29): 2.54 µM (inactive) | GI50 (OVCAR-3): 7.01 µM (inactive) | GI50 (CAKI-1): 6.98 µM (inactive) | GI50 (SF-539): 17.2 µM (inactive) | GI50 (TK-10): 16.9 µM (inactive) | GI50 (OVCAR-8): 3.16 µM (inactive) | GI50 (HCT-116): 5.05 µM (inactive) | GI50 (A549): 14.4 µM (inactive) | GI50 (OVCAR-4): 8.57 µM (inactive) | GI50 (BT-549): 14.6 µM (inactive) | GI50 (T47D): 12.4 µM (inactive) | GI50 (LOX IMVI): 1.58 µM (inactive) | GI50 (OVCAR-5): 18.8 µM (inactive) | GI50 (786-0): 9.02 µM (inactive) | GI50 (NCI-H23): 7.91 µM (inactive) | GI50 (DU-145): 13.2 µM (inactive) | GI50 (COLO 205): 14.4 µM (inactive) | GI50 (U-251): 12.7 µM (inactive) | GI50 (K562): 2.05 µM (inactive) | GI50 (HOP-92): 16.4 µM (inactive) | GI50 (UACC-257): 11.4 µM (inactive) | GI50 (MDA-N): 15 µM (inactive) | GI50 (SK-MEL-28): 5.9 µM (inactive) | GI50 (RXF 393): 13.8 µM (inactive) | GI50 (MDA-MB-231): 7.89 µM (inactive) | GI50 (HL-60): 2.44 µM (inactive) | GI50 (SK-MEL-2): 3.63 µM (inactive) | GI50 (SF-268): 6.04 µM (inactive) | GI50 (IGROV-1): 2.27 µM (inactive) | GI50 (NCI/ADR-RES): 17.5 µM (inactive) | GI50 (HCC 2998): 2.86 µM (inactive) | GI50 (SNB-75): 6.46 µM (inactive)

O=[N+]([O-])c1oc2ccc3ccccc3c2c1CCO
GI50 (SK-MEL-5): 0.546 µM (active) | GI50 (MDA-MB-435): 1.53 µM (inactive) | GI50 (NCI-H522): 1.63 µM (inactive) | GI50 (M14): 1.94 µM (inactive) | GI50 (MCF7): 3.22 µM (inactive) | GI50 (SR): 0.114 µM (active) | GI50 (Hs-578T): 5.22 µM (inactive) | GI50 (MOLT-4): 1.04 µM (active) | GI50 (SF-295): 1.57 µM (inactive) | GI50 (A498): 0.166 µM (active) | GI50 (UO-31): 1.64 µM (inactive) | GI50 (KM12): 9.33 µM (inactive) | GI50 (Malme-3M): 1.78 µM (inactive) | GI50 (EKVX): 0.447 µM (active) | GI50 (HCT-15): 3.56 µM | GI50 (ACHN): 1.58 µM (inactive) | GI50 (PC-3): 13.1 µM (inactive) | GI50 (SNB-19): 7.24 µM (inactive) | GI50 (CCRF-CEM): 3.86 µM (inactive) | GI50 (HOP-62): 16.6 µM (inactive) | GI50 (SK-OV-3): 1.05 µM (active) | GI50 (NCI-H226): 8.75 µM (inactive) | GI50 (NCI-H460): 0.0479 µM (active) | GI50 (UACC-62): 2.87 µM (inactive) | GI50 (RPMI-8226): 3.96 µM (inactive) | GI50 (SN12C): 6.21 µM (inactive) | GI50 (SW-620): 4.08 µM (inactive) | GI50 (HT-29): 2.94 µM (inactive) | GI50 (OVCAR-3): 12.6 µM (inactive) | GI50 (CAKI-1): 2.25 µM (inactive) | GI50 (SF-539): 3.28 µM (inactive) | GI50 (TK-10): 4.97 µM (inactive) | GI50 (OVCAR-8): 3.44 µM (inactive) | GI50 (HCT-116): 2.29 µM (inactive) | GI50 (A549): 1.9 µM (inactive) | GI50 (OVCAR-4): 3.18 µM (inactive) | GI50 (BT-549): 2.29 µM (inactive) | GI50 (T47D): 13.2 µM (inactive) | GI50 (LOX IMVI): 2.14 µM (inactive) | GI50 (OVCAR-5): 7.23 µM (inactive) | GI50 (786-0): 5.27 µM (inactive) | GI50 (NCI-H23): 3.23 µM (inactive) | GI50 (DU-145): 3.51 µM (inactive) | GI50 (COLO 205): 0.346 µM (active) | GI50 (U-251): 9.44 µM (inactive) | GI50 (K562): 1.96 µM (inactive) | GI50 (HOP-92): 3.5 µM (inactive) | GI50 (UACC-257): 1.94 µM (inactive) | GI50 (MDA-N): 1.77 µM (inactive) | GI50 (SK-MEL-28): 1.38 µM (inactive) | GI50 (RXF 393): 1.58 µM (inactive) | GI50 (MDA-MB-231): 11.1 µM (inactive) | GI50 (HL-60): 1.74 µM (inactive) | GI50 (SK-MEL-2): 1.85 µM (inactive) | GI50 (SF-268): 5.47 µM (inactive) | GI50 (IGROV-1): 1.32 µM (inactive) | GI50 (NCI/ADR-RES): 4.79 µM (inactive) | GI50 (HCC 2998): 0.435 µM (active) | GI50 (SNB-75): 4.41 µM (inactive)
